Laboratory results reported in ChEMBL document CHEMBL2016455, “5-Benzothiazole substituted pyrimidine derivatives as HCV replication (replicase) inhibitors” (Bioorg Med Chem Lett, 2012).

Columns and labels:
Liver = test: Drug uptake in rat liver per mg tissue at 10 mg/kg, po after 6 hrs; assay type: ADME, organism-based; design: dose 10 mg/kg, route oral; conditions: in vivo
[1] = Cytotoxicity against human hepatoma cells after 3 days by MTS assay; assay type: cell-based; conditions: for CC50 at 72 h: human hepatoma cells
[2] = AUC (0 to 6 hrs) in rat at 10 mg/kg, po; assay type: ADME, organism-based; design: time < 6 hr, dose 10 mg/kg, route oral; conditions: plasma
[3] = Cytotoxicity against human hepatoma cells assessed as decrease in RNA level after 3 days by RT-PCR analysis; assay type: cell-based; conditions: for CC50 at 72 h: human hepatoma cells
Hepatitis C virus = test: Antiviral activity against Hepatitis C virus isolate con1 1b infected in human hepatoma cells replicon cells after 3 days by RT-PCR analysis; assay type: functional, organism-based, Hepacivirus hominis, genotype 1b Con1
[4] = AUC (0 to 24 hrs) in rat at 10 mg/kg, po; assay type: ADME, organism-based; design: time < 24 hr, dose 10 mg/kg, route oral; conditions: plasma
Cytochrome P450 3A4 = Cytochrome P450 3A4 (Homo sapiens, UniProt P08684); test: Inhibition of CYP3A4; assay type: ADME
Chain of Cytochrome P450 3A4 (P08684 whole entry): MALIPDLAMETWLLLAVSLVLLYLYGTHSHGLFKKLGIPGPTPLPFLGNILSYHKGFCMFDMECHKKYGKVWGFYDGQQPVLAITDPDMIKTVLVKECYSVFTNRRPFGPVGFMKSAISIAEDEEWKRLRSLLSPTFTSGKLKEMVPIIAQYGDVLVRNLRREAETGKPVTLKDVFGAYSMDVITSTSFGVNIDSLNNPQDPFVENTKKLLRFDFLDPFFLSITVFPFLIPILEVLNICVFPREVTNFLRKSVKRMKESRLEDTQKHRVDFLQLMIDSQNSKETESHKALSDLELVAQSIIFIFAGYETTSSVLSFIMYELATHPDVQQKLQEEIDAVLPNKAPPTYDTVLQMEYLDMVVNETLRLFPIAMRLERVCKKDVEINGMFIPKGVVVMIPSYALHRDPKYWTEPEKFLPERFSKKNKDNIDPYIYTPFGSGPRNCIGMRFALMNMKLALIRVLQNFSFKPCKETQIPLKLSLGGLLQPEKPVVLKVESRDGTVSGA

[5] = Selectivity ratio of CC50 for human hepatoma cells to EC50 for Hepatitis C virus isolate con1 1b; assay type: ADME; conditions: read-out: Ratio CC50/EC50
Cytochrome P450 2C9 = Cytochrome P450 2C9 (Homo sapiens, UniProt P11712); test: Inhibition of CYP2C9; assay type: ADME
Chain of Cytochrome P450 2C9 (P11712 whole entry): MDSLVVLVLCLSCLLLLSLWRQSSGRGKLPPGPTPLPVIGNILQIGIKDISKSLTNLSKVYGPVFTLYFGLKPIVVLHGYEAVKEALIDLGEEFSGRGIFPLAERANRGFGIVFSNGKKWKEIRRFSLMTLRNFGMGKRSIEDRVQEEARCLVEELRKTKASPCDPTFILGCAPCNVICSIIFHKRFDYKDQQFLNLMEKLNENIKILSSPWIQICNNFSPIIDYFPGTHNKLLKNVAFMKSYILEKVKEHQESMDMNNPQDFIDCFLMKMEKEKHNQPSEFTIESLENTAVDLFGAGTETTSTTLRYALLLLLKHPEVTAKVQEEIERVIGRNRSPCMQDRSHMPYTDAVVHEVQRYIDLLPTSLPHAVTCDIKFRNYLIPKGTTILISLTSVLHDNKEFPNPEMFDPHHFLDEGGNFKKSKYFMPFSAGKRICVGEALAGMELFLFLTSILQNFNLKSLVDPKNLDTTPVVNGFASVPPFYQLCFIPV

[6] = AUC (0 to 24 hrs) in rat at 2 mg/kg, iv and 10 mg/kg, po; assay type: ADME, organism-based; conditions: plasma
[7] = AUC (0 to 24 hrs) in monkey at 1 mg/kg, iv and 3 mg/kg, po; assay type: ADME, organism-based, Macaca mulatta; conditions: rhesus monkey, plasma
[8] = Oral bioavailability in rat at 10 mg/kg; assay type: ADME, organism-based; conditions: in vivo
[9] = AUC (0 to 24 hrs) in dog at 1 mg/kg, iv and 3 mg/kg, po; assay type: ADME, organism-based, Canis lupus familiaris; conditions: plasma
[10] = Oral bioavailability in monkey at 3 mg/kg; assay type: ADME, organism-based, Macaca mulatta; conditions: rhesus monkey, in vivo
[11] = Oral bioavailability in dog at 3 mg/kg; assay type: ADME, organism-based, Canis lupus familiaris; conditions: in vivo
Cytochrome P450 2D6 = Cytochrome P450 2D6 (Homo sapiens, UniProt P10635); test: Inhibition of CYP2D6; assay type: ADME
Chain of Cytochrome P450 2D6 (P10635 whole entry): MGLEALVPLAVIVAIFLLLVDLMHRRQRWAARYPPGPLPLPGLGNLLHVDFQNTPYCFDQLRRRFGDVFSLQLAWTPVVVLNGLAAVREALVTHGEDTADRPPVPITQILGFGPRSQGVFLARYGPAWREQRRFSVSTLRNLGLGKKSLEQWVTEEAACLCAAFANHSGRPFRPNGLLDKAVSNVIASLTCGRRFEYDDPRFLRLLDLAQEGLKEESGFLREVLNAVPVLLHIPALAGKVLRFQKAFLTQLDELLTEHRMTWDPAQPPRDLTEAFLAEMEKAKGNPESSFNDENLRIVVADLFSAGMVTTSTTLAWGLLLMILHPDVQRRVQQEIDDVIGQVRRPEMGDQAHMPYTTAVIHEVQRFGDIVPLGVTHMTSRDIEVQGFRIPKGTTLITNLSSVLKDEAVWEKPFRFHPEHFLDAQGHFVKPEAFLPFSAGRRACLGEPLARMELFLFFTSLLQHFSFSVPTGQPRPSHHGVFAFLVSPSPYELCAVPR

[12] = Drug uptake in rat liver at 10 mg/kg, po after 4 hrs; assay type: ADME, organism-based; design: dose 10 mg/kg, route oral; conditions: read-out: Drug uptake
[13] = Hepatitis C virus, genotype 1b Con1, 72 h

Row | SMILES | Drug uptake (Liver) | AUC(0-t) at 6 h [2] | EC50 (Hepatitis C virus; [13]) | CC50 at 72 h [1] | CC50 at 72 h [3] | further results
1 | Nc1ncc(-c2nc3ccccc3s2)c(N[C@@H]2C[C@H](CO)[C@@H](O)[C@H]2O)n1 | 250 ng/g | 0.4 µM·h | 0.2 µM | > 25 µM | > 25 µM | 
2 | Cc1nc(N(C)C)nc(N[C@@H]2C[C@H](CO)[C@@H](O)[C@H]2O)c1-c1nc2ccccc2s1 | 1030 ng/g |  | 0.14 µM | 16 µM | 18 µM | AUC(0-t) at 24 h [4]: 11 µM·h
3 | CCOC(=O)NCCNc1nc(C)c(-c2nc3ccccc3s2)c(N[C@@H]2C[C@H](CO)[C@@H](O)[C@H]2O)n1 | 63 ng/g | 0.3 µM·h | 0.04 µM | 19 µM | 12 µM | 
4 | Cc1nc(NCC(F)(F)F)nc(N[C@@H]2C[C@H](CO)[C@@H](O)[C@H]2O)c1-c1nc2ccccc2s1.Cl |  |  |  |  |  | CC50 ([1]; 72 h): 17 µM; INH (Cytochrome P450 3A4): > 20 µM; selectivity ratio [5]: > 550; INH (Cytochrome P450 2C9): > 20 µM; AUC(0-t) [6]: 7 µM·h; AUC(0-t) [7]: 0.3 µM·h; bioavailability [8]: 82%; AUC(0-t) [9]: 7.8 µM·h; bioavailability [10]: 8%; CC50 ([3]; 72 h): 25 µM; bioavailability [11]: 35%; INH (Cytochrome P450 2D6): > 20 µM; EC50 (Hepatitis C virus): 0.03 µM
5 | Cc1nc(NCC(F)(F)F)nc(N[C@@H]2C[C@H](CO)[C@@H](O)[C@H]2O)c1-c1nc2ccccc2s1 |  |  |  | > 25 µM | > 25 µM | concentration at 4 h [12]: 8420 ng/g; AUC(0-t) at 24 h [4]: 7 µM·h; EC50 (Hepatitis C virus): 0.8 µM
6 | OC[C@H]1C[C@@H](Nc2nc(NCC(F)(F)F)nc(C3CC3)c2-c2nc3ccccc3s2)[C@H](O)[C@@H]1O | 12800 ng/g | 12.8 µM·h | 0.7 µM | > 25 µM | > 25 µM | 
7 | Cc1nc(N[C@@H](C)C(F)(F)F)nc(N[C@@H]2C[C@H](CO)[C@@H](O)[C@H]2O)c1-c1nc2ccccc2s1 | 6570 ng/g | 13 µM·h | 0.14 µM | > 25 µM | > 25 µM | 
8 | Cc1nc(NCCCC(F)(F)F)nc(N[C@@H]2C[C@H](CO)[C@@H](O)[C@H]2O)c1-c1nc2ccccc2s1 | 2230 ng/g | 2.1 µM·h | 0.03 µM | 4 µM | 3 µM | 
9 | Cc1nc(Nc2ccccc2)nc(N[C@@H]2C[C@H](CO)[C@@H](O)[C@H]2O)c1-c1nc2ccccc2s1 | 970 ng/g | 1.6 µM·h | 0.28 µM | > 25 µM | > 25 µM | 
10 | Cc1nc(NCc2ccccc2)nc(N[C@@H]2C[C@H](CO)[C@@H](O)[C@H]2O)c1-c1nc2ccccc2s1 | 430 ng/g | 2.2 µM·h | 0.03 µM | 7 µM | 9 µM | 
11 | Cc1nc(NCc2cccs2)nc(N[C@@H]2C[C@H](CO)[C@@H](O)[C@H]2O)c1-c1nc2ccccc2s1 | 180 ng/g | 0.5 µM·h | 0.006 µM | 5 µM | 6 µM | 
12 | Cc1nc(NCc2ccsc2)nc(N[C@@H]2C[C@H](CO)[C@@H](O)[C@H]2O)c1-c1nc2ccccc2s1 | 75 ng/g | 0.2 µM·h | 0.015 µM | 4 µM | 6 µM | 

The next lines start with results.

Row | Drug uptake (Liver) | AUC(0-t) at 6 h [2] | EC50 (Hepatitis C virus; [13]) | SMILES | CC50 at 72 h [1] | CC50 at 72 h [3] | further results
13 | 1240 ng/g | 5 µM·h | 0.09 µM | Cc1nc(NC(C)(C)C)nc(N[C@@H]2C[C@H](CO)[C@@H](O)[C@H]2O)c1-c1nc2ccccc2s1 | 13 µM | 12 µM | 
14 | 75 ng/g | 2.7 µM·h | 0.05 µM | CNc1nc(C)c(-c2nc3ccccc3s2)c(N[C@@H]2C[C@H](CO)[C@@H](O)[C@H]2O)n1 | > 25 µM | > 25 µM | 
15 | 515 ng/g | 6.2 µM·h | 0.1 µM | CCNc1nc(C)c(-c2nc3ccccc3s2)c(N[C@@H]2C[C@H](CO)[C@@H](O)[C@H]2O)n1 | > 25 µM | 12 µM | 
16 | 3320 ng/g | 19.6 µM·h | 0.16 µM | Cc1nc(NC(C)C)nc(N[C@@H]2C[C@H](CO)[C@@H](O)[C@H]2O)c1-c1nc2ccccc2s1 | 14 µM | 13 µM | 
17 | 510 ng/g | 2.3 µM·h | 0.06 µM | Cc1nc(NCC(C)C)nc(N[C@@H]2C[C@H](CO)[C@@H](O)[C@H]2O)c1-c1nc2ccccc2s1 | 10 µM | 10 µM | 
18 | 405 ng/g | 3.2 µM·h | 0.05 µM | Cc1nc(NCC2CC2)nc(N[C@@H]2C[C@H](CO)[C@@H](O)[C@H]2O)c1-c1nc2ccccc2s1 | 8 µM | 8 µM | 
19 | 150 ng/g | 0.5 µM·h | 0.25 µM | Cc1nc(NCC2CCC2)nc(N[C@@H]2C[C@H](CO)[C@@H](O)[C@H]2O)c1-c1nc2ccccc2s1 | > 25 µM | > 25 µM | 
20 | 875 ng/g | 5.9 µM·h | 0.035 µM | COCCNc1nc(C)c(-c2nc3ccccc3s2)c(N[C@@H]2C[C@H](CO)[C@@H](O)[C@H]2O)n1 | 15 µM | 21 µM | 
21 | 400 ng/g | 2.4 µM·h | 0.035 µM | CCOCCNc1nc(C)c(-c2nc3ccccc3s2)c(N[C@@H]2C[C@H](CO)[C@@H](O)[C@H]2O)n1 | 18 µM | 18 µM | 
22 | 130 ng/g | 0.9 µM·h | 0.02 µM | Cc1nc(NCCOC(C)C)nc(N[C@@H]2C[C@H](CO)[C@@H](O)[C@H]2O)c1-c1nc2ccccc2s1 | 7 µM | 8 µM | 
23 | 370 ng/g | 0.2 µM·h | 0.04 µM | Cc1nc(NCCN2CCOCC2)nc(N[C@@H]2C[C@H](CO)[C@@H](O)[C@H]2O)c1-c1nc2ccccc2s1 | 25 µM | 25 µM | 
24 | 1080 ng/g | 5.3 µM·h | 0.03 µM | Cc1nc(NCCC(F)(F)F)nc(N[C@@H]2C[C@H](CO)[C@@H](O)[C@H]2O)c1-c1nc2ccccc2s1 | 9 µM | 9 µM | 
25 | 150 ng/g | 0.5 µM·h | 0.03 µM | Cc1nc(NCc2nccs2)nc(N[C@@H]2C[C@H](CO)[C@@H](O)[C@H]2O)c1-c1nc2ccccc2s1 | 21 µM | 23 µM | 
